Data on seven compounds can be found in US10000471B2, “Pyrazole P38 map kinase inhibitors” (Respivert Limited, priority 2010, dated 2018).

Each structure is given as a SMILES string.

Data set [1] concerns the target T1, p38 MAPKα isoform (MAPK14) (Homo sapiens, UniProt Q16539).
T1 construct: purchased Invitrogen
Description: Enzyme inhibition assay (FRET, Z-LYTE), p38 MAPKα via MAPKAP-K2 activation. It is filed as biochemical. The note with it: read-out: Enzyme Inhibition IC50 p38α. The procedure:
(§1) The enzyme inhibitory activities of compounds disclosed herein were determined by fluorescence resonance energy transfer (FRET) using synthetic peptides labelled with both donor and acceptor fluorophores (Z-LYTE, Invitrogen Ltd., Paisley, UK). Recombinant, phosphorylated p38 MAPKγ (MAPK12:Invitrogen) was diluted in HEPES buffer, mixed with the test compound at the desired final concentrations and incubated for 2 hr at RT. The FRET peptide (2 μM) and ATP (100 μM) were added to the enzyme/compound mixture and incubated for 1 hr. Development reagent (protease) was added for 1 hr prior to detection in a fluorescence microplate reader (Varioskan® Flash, ThermoFisher Scientific). The site-specific protease cleaves non-phosphorylated peptide only and eliminates the FRET signal. Phosphorylation levels of each reaction were calculated using the ratio of coumarin emission (donor) over fluorescein emission (acceptor) for which high ratios indicate high phosphorylation and low ratios indicate low phosphorylation levels. The percentage inhibition of each reaction was calculated relative to non-inhibited control and the 50% inhibitory concentration (IC50 value) then calculated from the concentration-response curve.
For the p38 MAPKα isoform (MAPK14: Invitrogen), enzyme activity was evaluated indirectly by determining the level of activation/phosphorylation of the down-stream molecule, MAPKAP-K2. The p38 MAPKα protein was mixed with the test compound for 2 hr at RT. […] Development reagent was then added and the mixture incubated for 1 hr before detection by fluorescence completed the assay protocol.

For a further data set, the target named is T2, p38 MAPKγ (MAPK12) (Homo sapiens, UniProt P53778).
T2 construct: purchased Invitrogen
T2 sequence (P53778 1-367): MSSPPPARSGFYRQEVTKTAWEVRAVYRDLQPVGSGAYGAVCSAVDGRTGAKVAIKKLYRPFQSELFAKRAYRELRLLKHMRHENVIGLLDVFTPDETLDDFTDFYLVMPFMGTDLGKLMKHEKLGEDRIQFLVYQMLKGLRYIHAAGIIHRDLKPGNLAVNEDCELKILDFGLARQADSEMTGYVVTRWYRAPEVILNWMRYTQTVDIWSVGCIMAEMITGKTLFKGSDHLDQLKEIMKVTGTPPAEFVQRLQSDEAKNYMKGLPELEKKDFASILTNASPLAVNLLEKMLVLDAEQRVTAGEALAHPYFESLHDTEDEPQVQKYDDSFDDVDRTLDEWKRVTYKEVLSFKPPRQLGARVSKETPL
Description: Enzyme inhibition assay (FRET, Z-LYTE), p38 MAPKγ. The conditions noted are these: read-out: Enzyme Inhibition IC50 p38γ. It counts as biochemical. As to the method: as §1

Data set [2] relates to TNFα release in THP-1 cells. Description: LPS-induced TNFα release in THP-1 cells. It counts as cell-based, human. The conditions noted are these: Homo sapiens. The procedure: LPS-Induced TNFα Release in THP-1 Cells
THP-1 cells, a human monocytic cell line, were stimulated with 3 μg/mL of LPS (from E. Coli; 0111:B4, Sigma) for 4 hr and the supernatant collected for determination of the TNFα concentration by sandwich ELISA (Duo-set, R&D systems). The inhibition of TNFα production was calculated at each concentration by comparison with vehicle control. The 50% inhibitory concentration (IC50) was determined from the resultant concentration-response curve.

Data set [3] concerns TNFα release in d-U937 cells. Put plainly: LPS-induced TNFα release in d-U937 cells. The note with it: Homo sapiens, dU937, relative to 10 μg/mL BIRB796, read-out: LPS/TNFα REC50 d-U937. It counts as cell-based, human. As to the method: (§2) LPS-Induced TNFα/IL-8 Release in d-U937 Cells
(§3) U937 cells, a human monocytic cell line, were differentiated to macrophage-type cells by incubation with phorbol myristate acetate (PMA; 100 ng/ml) for 48 to 72 hr. Cells were pre-incubated with final concentrations of test compound for 2 hr and were then stimulated with 0.1 μg/mL of LPS (from E. Coli: O111:B4, Sigma) for 4 hr. The supernatant was collected for determination of TNFα and IL-8 concentrations by sandwich ELISA (Duo-set, R&D systems). The inhibition of TNFα production was calculated as a percentage of that achieved by 10 μg/mL of BIRB796 at each concentration of test compound by comparison against vehicle control. The relative 50% effective concentration (REC50) was determined from the resultant concentration-response curve. The inhibition of IL-8 production was calculated at each concentration of test compound by comparison with vehicle control. The 50% inhibitory concentration (IC50) was determined from the resultant concentration-response curve.

In data set [4] the test system is IL-8 release in d-U937 cells. Put plainly: LPS-induced IL-8 release in d-U937 cells. It is filed as cell-based, human. The note with it: Homo sapiens, dU937. As to the method:
as §2, §3

In data set [5] the test system is ICAM-1 induction in BEAS2B cells. Put plainly: Poly I:C-induced ICAM-1 induction in BEAS2B cells. The note with it: Homo sapiens, BEAS-2B, read-out: PolyIC/ICAM1 IC50 BEAS2B. It is filed as cell-based, human. The procedure:
Poly I:C-Induced ICAM-1 Induction in BEAS2B Cells
Poly I:C (1 μg/mL) (Invivogene Ltd., San Diego, Calif.) was transfected into BEAS2B cells (human bronchial epithelial cells, ATCC) with Oligofectamine (Invitrogen, Carlsbad, Calif.). Cells were pre-incubated with final concentrations of test compounds for 2 hr and the level of ICAM1 expression on the cell surface was determined by cell-based ELISA. At a time point 18 hr after poly I:C transfection, cells were fixed with 4% formaldehyde in PBS and then endogenous peroxidase was quenched by the addition of 0.1% sodium azide and 1% hydrogen peroxide. Cells were washed with wash-buffer (0.1% Tween in PBS: PBS-Tween). and after blocking the wells with 5% milk in PBS-Tween for 1 hr, the cells were incubated with anti-human ICAM-1 antibody (Cell Signaling Technology, Danvers, Mass.) in 1% BSA PBS overnight at 4° C. The cells were washed with PBS-Tween and incubated with the secondary antibody (HRP-conjugated anti-rabbit IgG, Dako Ltd., Glostrup, Denmark). The ICAM-1 signal was detected by adding substrate and reading the absorbance at 450 nm against a reference wavelength of 655 nm using a spectrophotometer. The cells were then washed with PBS-Tween and total cell numbers in each well were determined by reading absorbance at 595 nm after Crystal Violet staining and elution by 1% SDS solution. The measured OD 450-655 readings were corrected for cell number by dividing with the OD595 reading in each well. The inhibition of ICAM-1 expression was calculated at each concentration of test compound by comparison with vehicle control. The 50% inhibitory concentration (IC50) was determined from the resultant concentration-response curve.

In data set [6] the test system is Differentiated U937 cells. Put plainly: Cell viability MTT assay. It is filed as cell-based, human. The note with it: negative = apparent increase in viability; for MTT Assay (Viability) 4 h d-U937, percentage loss of cell viability: 4 hr in 5% FCS; for MTT Assay (Viability) 24 h d-U937, percentage loss of cell viability: 24 h in 10% FCS. As to the method:
Differentiated U937 cells were pre-incubated with each test compound under two protocols: the first for 4 hr in 5% FCS and the second in 10% FCS for 24 h. The supernatant was replaced with 200 μL of new media and 10 μL of MTT stock solution (5 mg/mL) was added to each well. After incubation for 1 hr the media were removed, 200 μL of DMSO was added to each well and the plates were shaken lightly for 1 hr prior to reading the absorbance at 550 nm. The percentage loss of cell viability was calculated for each well relative to vehicle (0.5% DMSO) treatment. Consequently an apparent increase in cell viability for drug treatment relative to vehicle is tabulated as a negative percentage.
(In general: Tetrazolium assays rely on reduction of a dye to a coloured formazan, in cell work by metabolically active cells.)

T1 sequence (Q16539 whole entry, canonical isoform): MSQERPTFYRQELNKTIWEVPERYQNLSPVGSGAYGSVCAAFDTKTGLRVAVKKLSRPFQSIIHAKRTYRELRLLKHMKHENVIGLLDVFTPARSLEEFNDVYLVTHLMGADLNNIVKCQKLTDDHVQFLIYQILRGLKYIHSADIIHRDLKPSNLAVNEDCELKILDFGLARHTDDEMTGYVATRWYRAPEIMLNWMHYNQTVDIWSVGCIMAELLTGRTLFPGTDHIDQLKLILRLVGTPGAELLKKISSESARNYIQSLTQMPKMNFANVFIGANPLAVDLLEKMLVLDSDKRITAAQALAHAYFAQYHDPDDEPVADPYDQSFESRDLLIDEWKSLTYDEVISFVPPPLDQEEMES

Regarding `CSc1ccc(-n2nc(C(C)(C)C)cc2NC(=O)Nc2ccc(Oc3ccnc(NC(=O)N4CCCC4)c3)c(Cl)c2Cl)cc1` [Example 10, N-(4-(4-(3-(3-tert-Butyl-1-(4-(methylthio)phenyl)-1H-pyrazol-5-yl)ureido)-2,3-dichlorophenoxy)pyridin-2-yl)pyrrolidine-1-carboxamide], the IC50 stood at 36.7 nM in data set [1]; 184 nM on p38 MAPKγ (MAPK12); 0.4 nM in data set [2]; 1.2 nM in data set [4]; 1.7 nM in data set [5]. Besides, in data set [3], the EC50 was 0.8 nM. Further, the “MTT Assay (Viability) 4 h d-U937, percentage loss of cell viability” value in data set [6] was −18.7%. Also, in data set [6], the “MTT Assay (Viability) 24 h d-U937, percentage loss of cell viability” value is on record as 17.0%.
Regarding `CN(C)[C@@H]1CCN(C(=O)Nc2cc(Oc3ccc(NC(=O)Nc4cc(C(C)(C)C)nn4-c4ccc(O)cc4)c(Cl)c3Cl)ccn2)C1` [Example 11, (R)—N-(4-(4-(3-(3-tert-Butyl-1-(4-hydroxyphenyl)-1H-pyrazol-5-yl)ureido)-2,3-dichlorophenoxy)pyridin-2-yl)-3-(dimethylamino)pyrrolidine-1-carboxamide], the IC50 amounted to 15.9 nM in data set [1]; 38.7 nM at p38 MAPKγ (MAPK12); 0.7 nM in data set [2]; 4.5 nM in data set [4]; 1.8 nM in data set [5]. In data set [3], the EC50 was determined as 0.8 nM. The “MTT Assay (Viability) 4 h d-U937, percentage loss of cell viability” value in data set [6] is listed as −1.3%. Also, the “MTT Assay (Viability) 24 h d-U937, percentage loss of cell viability” value in data set [6] is 42.0%.
For `CCNC(=O)Nc1cc(Oc2ccc(NC(=O)Nc3cc(C(C)(C)C)nn3-c3ccc(OC)cc3)c(Cl)c2Cl)ccn1` [Example 12, 1-(4-(4-(3-(3-tert-Butyl-1-(4-methoxyphenyl)-1H-pyrazol-5-yl)ureido)-2,3-dichlorophenoxy)pyridin-2-yl)-3-ethylurea], the IC50 in data set [1] stood at 24.7 nM; at p38 MAPKγ (MAPK12), 57.2 nM; in data set [2], 1.6 nM; in data set [4], 0.2 nM; in data set [5], 2.7 nM. Also, the EC50 in data set [3] came out at 1.7 nM. The “MTT Assay (Viability) 4 h d-U937, percentage loss of cell viability” value in data set [6] was 5.0%. The “MTT Assay (Viability) 24 h d-U937, percentage loss of cell viability” value in data set [6] is on record as 24.1%.
In the case of `COc1ccc(-n2nc(C(C)(C)C)cc2NC(=O)Nc2ccc(Oc3ccnc(NC(=O)NCCN(C)C)c3)c(Cl)c2Cl)cc1` [Example 13, 1-(3-tert-Butyl-1-(4-methoxyphenyl)-1H-pyrazol-5-yl)-3-(2,3-dichloro-4-((2-(3-(2-(dimethylamino)ethyl)ureido)pyridin-4-yl)oxy)phenyl)urea], the IC50 in data set [1] worked out at 11.2 nM; on p38 MAPKγ (MAPK12) it was 21.7 nM; in data set [2], 1.7 nM; in data set [4], 1.3 nM; in data set [5] it was 2.1 nM. In addition, in data set [3], the EC50 turned out to be 2.1 nM. In addition, the “MTT Assay (Viability) 4 h d-U937, percentage loss of cell viability” value in data set [6] is listed as −6.4%. Besides, the “MTT Assay (Viability) 24 h d-U937, percentage loss of cell viability” value in data set [6] came to 63.9%.
For `COCC(=O)Nc1cc(COc2ccc(NC(=O)Nc3cc(C(C)(C)C)nn3-c3ccc(C)cc3)c(Cl)c2Cl)ccn1` [Example 14, N-(4-((4-(3-(3-tert-Butyl-1-p-tolyl-1H-pyrazol-5-yl)ureido)-2,3-dichlorophenoxy)methyl)pyridin-2-yl)-2-methoxyacetamide], the IC50 in data set [1] is 17 nM; at p38 MAPKγ (MAPK12), 33.1 nM; in data set [2], 6.1 nM; in data set [4], 70.2 nM; in data set [5] it was 32.2 nM. In addition, the EC50 in data set [3] was found to be 40.8 nM. In addition, the “MTT Assay (Viability) 4 h d-U937, percentage loss of cell viability” value in data set [6] is on record as −7.9%. Also, the “MTT Assay (Viability) 24 h d-U937, percentage loss of cell viability” value in data set [6] came out at 49.6%.
Regarding `COCC(=O)Nc1cc(COc2ccc(NC(=O)Nc3cc(C(C)(C)C)nn3-c3ccc(OC)cc3)c(Cl)c2Cl)ccn1` [Example 15, N-(4-((4-(3-(3-tert-Butyl-1-(4-methoxyphenyl)-1H-pyrazol-5-yl)ureido)-2,3-dichlorophenoxy)methyl)pyridin-2-yl)-2-methoxyacetamide], the IC50 in data set [1] was determined as 15.7 nM; at p38 MAPKγ (MAPK12) it was 107 nM; in data set [2], 19.9 nM; in data set [4], 162 nM; in data set [5], 31.2 nM. Besides, the EC50 in data set [3] was 83.8 nM. The “MTT Assay (Viability) 4 h d-U937, percentage loss of cell viability” value in data set [6] was −12.2%. In data set [6], the “MTT Assay (Viability) 24 h d-U937, percentage loss of cell viability” value turned out to be 12.4%.
As for `COCC(=O)Nc1cc(COc2ccc(NC(=O)Nc3cc(C(C)(C)C)nn3-c3ccc(C)cc3)c3cccnc23)ccn1` [Example 16, N-(4-((5-(3-(3-tert-Butyl-1-p-tolyl-1H-pyrazol-5-yl)ureido)quinolin-8-yloxy)methyl)pyridin-2-yl)-2-methoxyacetamide], the IC50 is 36.7 nM in data set [1]; 1440 nM on p38 MAPKγ (MAPK12); greater than 1690 nM in data set [2]; 4960 nM in data set [4]; greater than 1690 nM in data set [5]. Further, in data set [3], the EC50 amounted to 876 nM. Also, the “MTT Assay (Viability) 4 h d-U937, percentage loss of cell viability” value in data set [6] is recorded as −8.1%. In addition, the “MTT Assay (Viability) 24 h d-U937, percentage loss of cell viability” value in data set [6] is reported as −21.3%.
